We go through three compounds from US9393199B2, “Methods and compositions for localized agent delivery” (Massachusetts Institute of Technology, priority 2008, dated 2016).

Data set [1] can be described thus: Release of cargo from lipid-coated DNA-gel nanoparticles (data not shown). As to conditions: lipid-coated DNA-gel particles ~200 nm. Type of data set: physicochemical.
The subject of data set [2] is lineage−Sca-1+c-kit+ progenitor cells. Briefly: Reconstitution by hematopoietic progenitor cell grafts in lethally irradiated recipients. In kind it is in vivo. The conditions noted are these: 1.6 ng TWS119 at the time of transplantation. Here is the method:
FIGS. 14A-D. Hematopoietic progenitor cells (referred to in the Figure as HSCs) carrying GSK-3β inhibitor-loaded nanoparticles reconstitute recipient animals with rapid kinetics following bone marrow transplants without affecting multilineage differentiation potential. (A, B) Engraftment kinetics of luciferase-transgenic HSC grafts in lethally-irradiated nontransgenic syngeneic recipients. Mice were treated with a single bolus injection of the GSK-3β inhibitor TWS119 (1.6 ng) on the day of transplantation, an equivalent TWS119 dose encapsulated in HSC-attached DNA-gel nanoparticles, or no exogenous agent. Transplanted mice were imaged for whole-body bioluminescence every 7 days for 3 weeks. Shown are representative IVIS images (A) and whole animal photon counts (B) for 9 mice total/treatment condition. (C) Percentage of donor-derived cells in recipient mice 2 weeks after transplantation of GFP^+ HSCs with or without TWS119. *P<0.001. (D) Average frequency of donor-derived GFP^+ B cells, T cells, and myeloid cells in recipient mice 3 months after transplantation. 5 mice/group were analyzed.
We further examined the utility of this delivery approach in the context of hematopoietic stem cell transplantations. We treated C57Bl/6 F-luc-transgenic mice or C57Bl/6 GFP-transgenic mice with 5-fluorouracil (5-FU, Sigma Aldrich) (150 mg/kg, i.p) and euthanized them 3 days later. […]

For data set [3] the following is noted: systemically injected; cited from earlier work.
Data set [4] is described as follows: Kinetics of protein release from lipid-coated PLGA particles in vitro (ELISA of supernatant). Type of data set: physicochemical. The conditions noted are these: complete RPMI 10% FCS, 37° C., by the end of the incubation period (~1 week). The protocol:
FIGS. 5A-C. Protein and TLR ligand incorporation in lipid-coated PLGA nanoparticles. (A) Confocal image (left) and cryoEM image (right) of lipid-coated nanoparticles loaded with fluorescent ova in the particle cores. Note that the particles in the confocal image are artificially aggregated here by drying on a coverslip for imaging. (B) Kinetics of IL-15 release from lipid-coated PLGA particles in vitro in complete medium at 37° C. (C) Bone marrow-derived DCs were incubated with 3 mg/mL lipid-nanoparticles containing 1 mole % or 10 mole % MPLA in the lipid coating, equivalent amounts of soluble MPLA (30 μg/mL or 3 μg/mL), or soluble LPS (1 μg/mL) as a positive control. At 24 hrs, the maturation status of the cells was assessed by flow cytometry analysis of cell surface MHC II, CD80, and CD40 (not shown).
Ova however is a model globular protein and as such it was chosen to illustrate the behavior of other proteins such as interleukin-15 (IL-15) superagonist molecules which can be used to support ACT T cells. […] The kinetics of IL-15 release from the particles was determined by incubating the particles in complete RPMI medium containing 10% FCS at 37° C. with gentle agitation and taking aliquots of the supernatant at staggered timepoints for ELISA analysis of cytokine content. […]
In general terms: An ELISA detects its analyte on a solid surface through an enzyme-linked reagent.

The conditions of data set [5]: systemic, delivered orally, humans; cited from earlier work.
For data set [6] the following is noted: cited from earlier work.

As to `Nc1cccc(-c2cc3c(Oc4cccc(O)c4)ncnc3[nH]2)c1` [TWS119], the “period of slow release from DNA-gel nanoparticles” value in data set [1] amounted to 7 days. Further, the “engraftment kinetics / proliferative reconstitution of progenitor cell grafts” value in data set [2] is reported as “did not significantly alter”.

With “IL-15: Interleukin-15, cytokine; encapsulated alone in lipid-coated PLGA particles in b217”, in data set [3], the half life was about 1 h. Moreover, the encapsulated cytokine released in data set [4] is on record as about 80%.

Consider `CC(C)Cn1cnc2c(N)nc3ccccc3c21` [imiquimod], for which, in data set [5], the toxicity result is recorded as “dose-limiting toxicity”. The half-life following injection in data set [6] was about 2 h.
